# Reference: article PMC2747657 (Bioorganic & medicinal chemistry, 2009)
# Like-named read-outs stand apart in the source and are kept apart here.
# Key:
# [1] = molecular target: T1, NET (Rattus norvegicus, UniProt Q63380); experiment: Inhibition of [3H]nisoxetine binding at the NET
# [2] = molecular target: 5-HTT (Rattus norvegicus, UniProt P31652); experiment: Inhibition of [3H]paroxetine binding at the 5-HTT; settings: for Ki: 5-HTT, Ki [3H]paroxetine; for NET/5-HTT Ratio: ratio of Ki values of NET/5-HTT, selectivity for the 5-HTT relative to the NET
# [3] = molecular target: DAT (Rattus norvegicus, UniProt P23977); experiment: Inhibition of [3H]WIN35,428 binding at the DAT
# [4] = molecular target: T1, NET; settings: read-out: NET, Ki [3H]nisoxetine; inhibition of [3H]nisoxetine binding; cited from earlier work
# [5] = relative to N-methyl compound 7a
# T1 sequence (Q63380 1-617): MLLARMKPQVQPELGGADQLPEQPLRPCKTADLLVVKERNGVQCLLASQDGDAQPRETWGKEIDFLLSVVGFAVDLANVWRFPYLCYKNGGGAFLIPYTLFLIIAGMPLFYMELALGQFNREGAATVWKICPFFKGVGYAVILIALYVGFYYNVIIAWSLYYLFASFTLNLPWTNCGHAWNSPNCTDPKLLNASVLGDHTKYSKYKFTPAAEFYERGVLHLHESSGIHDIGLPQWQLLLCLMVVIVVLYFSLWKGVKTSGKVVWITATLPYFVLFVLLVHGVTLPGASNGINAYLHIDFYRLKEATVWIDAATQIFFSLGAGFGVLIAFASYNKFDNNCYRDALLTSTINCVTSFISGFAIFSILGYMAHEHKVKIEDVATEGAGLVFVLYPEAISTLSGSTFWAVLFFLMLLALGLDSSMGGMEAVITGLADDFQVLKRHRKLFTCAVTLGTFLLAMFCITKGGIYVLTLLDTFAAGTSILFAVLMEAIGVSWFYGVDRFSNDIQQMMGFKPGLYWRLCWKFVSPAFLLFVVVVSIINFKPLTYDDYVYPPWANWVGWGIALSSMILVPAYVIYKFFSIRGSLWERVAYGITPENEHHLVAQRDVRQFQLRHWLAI
# Sequence of 5-HTT (P31652 whole entry): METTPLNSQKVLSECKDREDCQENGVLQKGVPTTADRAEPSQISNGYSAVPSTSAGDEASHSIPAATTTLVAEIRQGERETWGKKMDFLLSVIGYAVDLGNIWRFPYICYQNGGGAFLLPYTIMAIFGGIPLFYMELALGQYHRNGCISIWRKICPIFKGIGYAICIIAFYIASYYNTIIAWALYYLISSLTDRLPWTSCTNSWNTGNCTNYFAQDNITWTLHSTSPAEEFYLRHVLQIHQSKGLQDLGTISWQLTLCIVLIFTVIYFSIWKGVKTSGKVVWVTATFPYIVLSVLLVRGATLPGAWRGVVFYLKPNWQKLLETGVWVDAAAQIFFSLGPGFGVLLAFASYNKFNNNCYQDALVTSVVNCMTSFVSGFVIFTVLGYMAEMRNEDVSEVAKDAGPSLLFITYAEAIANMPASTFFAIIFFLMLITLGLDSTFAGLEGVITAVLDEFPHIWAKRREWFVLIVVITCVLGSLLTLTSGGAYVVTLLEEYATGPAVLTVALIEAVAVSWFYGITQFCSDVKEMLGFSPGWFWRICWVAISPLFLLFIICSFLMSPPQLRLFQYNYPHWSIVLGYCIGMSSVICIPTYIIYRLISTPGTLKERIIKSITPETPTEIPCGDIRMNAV
# Sequence of DAT (P23977 whole entry): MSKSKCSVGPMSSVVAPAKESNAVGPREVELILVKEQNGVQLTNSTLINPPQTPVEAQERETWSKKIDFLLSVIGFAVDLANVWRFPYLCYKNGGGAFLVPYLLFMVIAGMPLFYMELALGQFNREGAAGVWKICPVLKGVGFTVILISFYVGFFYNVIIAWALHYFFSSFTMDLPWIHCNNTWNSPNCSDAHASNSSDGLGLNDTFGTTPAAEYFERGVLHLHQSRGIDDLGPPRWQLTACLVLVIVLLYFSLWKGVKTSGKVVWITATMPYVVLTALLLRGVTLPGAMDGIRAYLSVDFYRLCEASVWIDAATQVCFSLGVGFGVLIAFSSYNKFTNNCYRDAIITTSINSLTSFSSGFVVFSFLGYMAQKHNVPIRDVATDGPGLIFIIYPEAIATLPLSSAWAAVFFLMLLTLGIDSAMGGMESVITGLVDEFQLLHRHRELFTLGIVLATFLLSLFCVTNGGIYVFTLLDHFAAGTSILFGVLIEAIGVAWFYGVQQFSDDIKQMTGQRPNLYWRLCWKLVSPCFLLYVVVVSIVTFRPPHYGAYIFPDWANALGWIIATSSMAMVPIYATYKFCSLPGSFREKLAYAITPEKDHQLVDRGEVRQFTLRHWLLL
Compound,Ki [1] [nM],Ki [2] [nM],further results
"COC(=O)[C@H]1[C@@H](c2ccc(SC)cc2)C[C@@H]2CC[C@H]1N2C [7a, 3β-(4-Methylthiophenyl)tropane-2β-carboxylic acid methyl ester]",220 ± 10,220,NET/5-HTT Ratio [2]: 314-364
"CCSc1ccc([C@H]2C[C@@H]3CC[C@H]([C@H]2C(=O)OC)N3C)cc1 [7b, 3β-(4-Ethylthiophenyl)tropane-2β-carboxylic acid methyl ester]",1170 ± 300,4.5 ± 0.5,–
"COC(=O)[C@H]1[C@@H](c2ccc(SC(C)C)cc2)C[C@@H]2CC[C@H]1N2C [7c, 3β-(4-Isopropylthiophenyl)tropane-2β-carboxylic acid methyl ester]",129 ± 2,129,–
"COC(=O)[C@H]1[C@@H](c2ccc(SC(F)(F)F)cc2)C[C@@H]2CC[C@H]1N2C [7d, 3β-(4-Trifluoromethylthiophenyl)tropane-2β-carboxylic acid methyl ester]",1900 ± 300,–,–
"COC(=O)[C@H]1[C@@H](c2ccc(SC)c(Br)c2)C[C@@H]2CC[C@H]1N2C [7e, 3β-(3-Bromo-4-methylthiophenyl)tropane-2β-carboxylic acid methyl ester]",121 ± 12,–,–
"COC(=O)[C@H]1[C@@H](c2ccc([S+](C)[O-])c(Br)c2)C[C@@H]2CC[C@H]1N2C (stereo partly drawn) [7f, 3β-(3-bromo-4-methylsulfinylphenyl)tropane-2β-carboxylic acid methyl ester]",690 ± 80,–,–
"COC(=O)[C@H]1[C@@H](c2ccc([S+](C)[O-])cc2)C[C@@H]2CC[C@H]1N2C (stereo partly drawn) [7g, 3β-(4-methylsulfinylphenyl)tropane-2β-carboxylic acid methyl ester]",515 ± 60,4.3 ± 0.6,–
"COC(=O)[C@H]1[C@@H](c2ccc(S(C)(=O)=O)cc2)C[C@@H]2CC[C@H]1N2C [7h, 3β-(4-Methylsulfonylphenyl)tropane-2β-carboxylic acid methyl ester]",> 10000,208 ± 45,IC50 [3]: > 10000 nM
"COC(=O)[C@@H]1C2CCC(C[C@@H]1c1ccc(SC)cc1)N2 (stereo partly drawn) [8a, 3β-(4-Methylthiophenyl)nortropane-2β-carboxylic acid methyl ester]",–,–,"fold less affinity at the DAT [3, 5]: 3 fold; fold increase in affinity at the NET [1, 5]: ~10 fold; fold increase in affinity at the 5-HTT [2, 5]: approximately 4 fold"
"COC(=O)[C@@H]1C2CCC(C[C@@H]1c1ccc(SC)cc1)N2CCCF (stereo partly drawn) [9a, 3β-(4-Methylthiophenyl)-8-(3-fluoropropyl)nortropane-2β-carboxylic acid methyl ester]",–,–,NET/5-HTT Ratio [2]: 314-364
"C=CCN1C2CCC1[C@@H](C(=O)OC)[C@@H](c1ccc(SC)cc1)C2 (stereo partly drawn) [10a, 3β-(4-Methylthiophenyl)-8-allylnortropane-2β-carboxylic acid methyl ester]",–,–,NET/5-HTT Ratio [2]: 314-364
"COC(=O)[C@H]1[C@@H](c2ccc(OC)cc2)C[C@@H]2CC[C@H]1N2C [compound 5, 3β-(4-methoxyphenyl)tropane-2β-carboxylic acid methyl ester]",–,–,Ki [4]: 1110 ± 64 nM
